Experimental data published in ChEMBL document CHEMBL1125236 (J Med Chem, 1991).
pIC50: −log10 of the molar value. Several values for one entry are separate records, joined by “and”; a condition that tells them apart may be missing. Equal values may be shown once.

What was measured:
[1] = Compound was evaluated for growth inhibition of WI-L2 cells.; type: functional, cell-based; conditions: Homo sapiens, WIL2
Dihydrofolate reductase = target: T1, Dihydrofolate reductase (Homo sapiens, UniProt P00374)
T1 sequence (P00374 whole entry): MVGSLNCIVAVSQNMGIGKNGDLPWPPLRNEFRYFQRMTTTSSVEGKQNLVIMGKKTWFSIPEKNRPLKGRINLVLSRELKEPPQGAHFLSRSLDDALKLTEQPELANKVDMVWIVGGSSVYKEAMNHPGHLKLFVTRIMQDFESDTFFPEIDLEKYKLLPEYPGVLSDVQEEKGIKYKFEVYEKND
Description: Inhibition of dihydrofolate reductase (DHFR) from human cells (WI-L2/M4).

L1210 [2] = assay: Compound was evaluated for the growth inhibition of L1210 cells.; type: functional, cell-based; conditions: Mus musculus
L1210 [3] = assay: In vivo activity against L1210 leukemia cells in mice at a dose of 8 mg/kg and expressed as Survival range in days; type: functional, Mus musculus
L1210 [4] = assay: In vivo activity against L1210 leukemia cells in mice at a dose of 16 mg/kg and expressed as Survival median in days; type: functional, Mus musculus
L1210 [5] = assay: In vivo activity against L1210 leukemia cells in mice at a dose of 32 mg/kg and expressed as Survival median in days; type: functional, Mus musculus
L1210 [6] = assay: Antitumor activity (T/C) evaluated against L1210 leukemia from the median survival time of treated mice (T) over that of control mice (C) at a dose of 32 mg/kg; type: functional, Mus musculus
L1210 [7] = assay: In vivo activity against L1210 leukemia cells in mice at a dose of 16 mg/kg and expressed as percent weight change after 7 days; type: functional, Mus musculus
L1210 [8] = assay: In vivo activity against L1210 leukemia cells in mice at a dose of 8 mg/kg and expressed as percent weight change after 7 days; type: functional, Mus musculus
L1210 [9] = assay: In vivo activity against L1210 leukemia cells in mice at a dose of 32 mg/kg and expressed as percent weight change after 7 days; type: functional, Mus musculus
L1210 [10] = assay: Antitumor activity (T/C) evaluated against L1210 leukemia from the median survival time of treated mice (T) over that of control mice (C) at a dose of 16 mg/kg; type: functional, Mus musculus
L1210 [11] = assay: In vivo activity against L1210 leukemia cells in mice at a dose of 8 mg/kg and expressed as Survival median in days; type: functional, Mus musculus
L1210 [12] = assay: Antitumor activity (T/C) evaluated against L1210 leukemia from the median survival time of treated mice (T) over that of control mice (C) at a dose of 8 mg/kg; type: functional, Mus musculus
L1210 [13] = assay: In vivo activity against L1210 leukemia cells in mice at a dose of 16 mg/kg and expressed as Survival range in days; type: functional, Mus musculus
L1210 [14] = assay: In vivo activity against L1210 leukemia cells in mice at a dose of 32 mg/kg and expressed as Survival range in days; type: functional, Mus musculus
L1210 [15] = assay: In vivo activity against L1210 leukemia cells in mice at a dose of 16 mg/kg and expressed as percent weight change after 7 days as experiment 3; type: functional, Mus musculus
L1210 [16] = assay: Antitumor activity (T/C) evaluated against L1210 leukemia from the median survival time of treated mice (T) over that of control mice (C) at a dose of 4 mg/kg as experiment 1; type: functional, Mus musculus
L1210 [17] = assay: In vivo activity against L1210 leukemia cells in mice at a dose of 16 mg/kg and expressed as percent weight change after 7 days as experiment 2; type: functional, Mus musculus
L1210 [18] = assay: In vivo activity against L1210 leukemia cells in mice at a dose of 20 mg/kg and expressed as percent weight change after 7 days as experiment 2; type: functional, Mus musculus
L1210 [19] = assay: Antitumor activity (T/C) evaluated against L1210 leukemia from the median survival time of treated mice (T) over that of control mice (C) at a dose of 16 mg/kg as experiment 2; type: functional, Mus musculus
L1210 [20] = assay: Antitumor activity (T/C) evaluated against L1210 leukemia from the median survival time of treated mice (T) over that of control mice (C) at a dose of 16 mg/kg as experiment 1; type: functional, Mus musculus
L1210 [21] = assay: In vivo activity against L1210 leukemia cells in mice at a dose of 8 mg/kg and expressed as Survival median in days as experiment 1.; type: functional, Mus musculus
L1210 [22] = assay: In vivo activity against L1210 leukemia cells in mice at a dose of 8 mg/kg and expressed as Survival median in days as experiment 3; type: functional, Mus musculus
L1210 [23] = assay: Antitumor activity (T/C) evaluated against L1210 leukemia from the median survival time of treated mice (T) over that of control mice (C) at a dose of 32 mg/kg as experiment 1; type: functional, Mus musculus
L1210 [24] = assay: Antitumor activity (T/C) evaluated against L1210 leukemia from the median survival time of treated mice (T) over that of control mice (C) at a dose of 16 mg/kg as experiment 3; type: functional, Mus musculus
L1210 [25] = assay: In vivo activity against L1210 leukemia cells in mice at a dose of 12 mg/kg and expressed as Survival median in days as experiment 2; type: functional, Mus musculus
L1210 [26] = assay: In vivo activity against L1210 leukemia cells in mice at a dose of 12 mg/kg and expressed as percent weight change after 7 days as experiment 3; type: functional, Mus musculus
L1210 [27] = assay: In vivo activity against L1210 leukemia cells in mice at a dose of 4 mg/kg and expressed as percent weight change after 7 days as experiment 1.; type: functional, Mus musculus
L1210 [28] = assay: In vivo activity against L1210 leukemia cells in mice at a dose of 4 mg/kg and expressed as Survival median in days as experiment 1.; type: functional, Mus musculus
L1210 [29] = assay: In vivo activity against L1210 leukemia cells in mice at a dose of 16 mg/kg and expressed as Survival median in days as experiment 3; type: functional, Mus musculus
L1210 [30] = assay: Antitumor activity (T/C) evaluated against L1210 leukemia from the median survival time of treated mice (T) over that of control mice (C) at a dose of 20 mg/kg as experiment 2; type: functional, Mus musculus
L1210 [31] = assay: In vivo activity against L1210 leukemia cells in mice at a dose of 16 mg/kg and expressed as Survival median in days as experiment 1.; type: functional, Mus musculus
L1210 [32] = assay: Antitumor activity (T/C) evaluated against L1210 leukemia from the median survival time of treated mice (T) over that of control mice (C) at a dose of 2 mg/kg as experiment 1; type: functional, Mus musculus
L1210 [33] = assay: In vivo activity against L1210 leukemia cells in mice at a dose of 12 mg/kg and expressed as percent weight change after 7 days as experiment 2; type: functional, Mus musculus
L1210 [34] = assay: In vivo activity against L1210 leukemia cells in mice at a dose of 4 mg/kg and expressed as Survival range in days as experiment 1.; type: functional, Mus musculus
L1210 [35] = assay: Antitumor activity (T/C) evaluated against L1210 leukemia from the median survival time of treated mice (T) over that of control mice (C) at a dose of 12 mg/kg as experiment 3; type: functional, Mus musculus
L1210 [36] = assay: In vivo activity against L1210 leukemia cells in mice at a dose of 12 mg/kg and expressed as Survival median in days as experiment 3; type: functional, Mus musculus
L1210 [37] = assay: In vivo activity against L1210 leukemia cells in mice at a dose of 20 mg/kg and expressed as Survival median in days as experiment 2; type: functional, Mus musculus
L1210 [38] = assay: Antitumor activity (T/C) evaluated against L1210 leukemia from the median survival time of treated mice (T) over that of control mice (C) at a dose of 12 mg/kg as experiment 2; type: functional, Mus musculus
L1210 [39] = assay: In vivo activity against L1210 leukemia cells in mice at a dose of 8 mg/kg and expressed as percent weight change after 7 days as experiment 3; type: functional, Mus musculus
L1210 [40] = assay: In vivo activity against L1210 leukemia cells in mice at a dose of 16 mg/kg and expressed as percent weight change after 7 days as experiment 1.; type: functional, Mus musculus
L1210 [41] = assay: In vivo activity against L1210 leukemia cells in mice at a dose of 24 mg/kg and expressed as percent weight change after 7 days as experiment 2; type: functional, Mus musculus
L1210 [42] = assay: In vivo activity against L1210 leukemia cells in mice at a dose of 8 mg/kg and expressed as percent weight change after 7 days as experiment 1.; type: functional, Mus musculus
L1210 [43] = assay: In vivo activity against L1210 leukemia cells in mice at a dose of 2 mg/kg and expressed as Survival median in days as experiment 1.; type: functional, Mus musculus
L1210 [44] = assay: In vivo activity against L1210 leukemia cells in mice at a dose of 32 mg/kg and expressed as percent weight change after 7 days as experiment 1.; type: functional, Mus musculus
L1210 [45] = assay: In vivo activity against L1210 leukemia cells in mice at a dose of 4 mg/kg and expressed as Survival median in days as experiment 3; type: functional, Mus musculus
L1210 [46] = assay: In vivo activity against L1210 leukemia cells in mice at a dose of 4 mg/kg and expressed as percent weight change after 7 days as experiment 3; type: functional, Mus musculus
L1210 [47] = assay: Antitumor activity (T/C) evaluated against L1210 leukemia from the median survival time of treated mice (T) over that of control mice (C) at a dose of 24 mg/kg as experiment 2; type: functional, Mus musculus
L1210 [48] = assay: In vivo activity against L1210 leukemia cells in mice at a dose of 16 mg/kg and expressed as Survival median in days as experiment 2; type: functional, Mus musculus
L1210 [49] = assay: In vivo activity against L1210 leukemia cells in mice at a dose of 2 mg/kg and expressed as percent weight change after 7 days as experiment 1.; type: functional, Mus musculus
L1210 [50] = assay: Antitumor activity (T/C) evaluated against L1210 leukemia from the median survival time of treated mice (T) over that of control mice (C) at a dose of 8 mg/kg as experiment 3; type: functional, Mus musculus
L1210 [51] = assay: In vivo activity against L1210 leukemia cells in mice at a dose of 32 mg/kg and expressed as Survival median in days as experiment 1.; type: functional, Mus musculus
L1210 [52] = assay: Antitumor activity (T/C) evaluated against L1210 leukemia from the median survival time of treated mice (T) over that of control mice (C) at a dose of 4 mg/kg as experiment 3; type: functional, Mus musculus

`CN(Cc1cnc2nc(N)nc(N)c2n1)c1ccc(C(=O)NC(CCC(=O)Nc2cccc(C(=O)O)c2)C(=O)O)cc1` (stereo unspecified) showed a pIC50 [1] of 8.66, a pIC50 (Dihydrofolate reductase) of 7.46 and a pIC50 (L1210 [2]) of 8.80.
In the case of `CN(Cc1cnc2nc(N)nc(N)c2n1)c1ccc(C(=O)NC(CCC(=O)Nc2cccc(B(O)O)c2)C(=O)O)cc1` (stereo unspecified), the Survival range (L1210 [3]) was 9 days, the Survival median (L1210 [4]) was 12 days and the Survival median (L1210 [5]) was 14 days. It also gave a T/C (L1210 [6]) of 175%, a weight change % (L1210 [7]) of 4% and a weight change % (L1210 [8]) of 8%. For the same molecule, the weight change % (L1210 [9]) was 5%, the T/C (L1210 [10]) was 150% and the Survival median (L1210 [11]) was 11 days. It also gave a pIC50 (Dihydrofolate reductase) of 7.52, a pIC50 (L1210 [2]) of 9.15 and a T/C (L1210 [12]) of 138%. The Survival range (L1210 [13]) was 11 days and the Survival range (L1210 [14]) was 12 days.
`Nc1nc(N)c2nc(CNc3ccc(C(=O)NC(CCCNC(=O)c4ccccc4C(=O)O)C(=O)O)cc3)cnc2n1` (stereo unspecified) gave a body weight change % (L1210 [15]) of -3%, a T/C (L1210 [16]) of 175% and a weight change % (L1210 [17]) of 1%. The weight change % (L1210 [18]) was -2%, the T/C (L1210 [19]) was 225% and the T/C (L1210 [20]) was 188% and 225%. The Survival median (L1210 [21]) was 15 days, the Survival median (L1210 [22]) was 20 days and the T/C (L1210 [23]) was 138%. It also gave a T/C (L1210 [24]) of 300%, a Survival median (L1210 [25]) of 15 days and a weight change % (L1210 [26]) of 2%. It also gave a weight change % (L1210 [27]) of -3%, a Survival median (L1210 [28]) of 14 days and a Survival median (L1210 [29]) of 24 days. For the same molecule, the T/C (L1210 [30]) was >263%, the Survival median (L1210 [31]) was 18 days and the T/C (L1210 [32]) was 163%. It also gave a weight change % (L1210 [33]) of 1%, a Survival range (L1210 [34]) of 13 days and a T/C (L1210 [35]) of 275%. For the same molecule, the Survival median (L1210 [36]) was 22 days, the Survival median (L1210 [37]) was >21 days and the T/C (L1210 [38]) was 188%. It also gave a weight change % (L1210 [39]) of 4%, a pIC50 [1] of 7.32 and a weight change % (L1210 [40]) of -5%. It also gave a weight change % (L1210 [41]) of -3%, a weight change % (L1210 [42]) of 4% and a Survival median (L1210 [43]) of 13 days. For the same molecule, the weight change % (L1210 [44]) was -11%, the Survival median (L1210 [45]) was 17 days and the weight change % (L1210 [46]) was 8%. For the same molecule, the T/C (L1210 [47]) was 250%, the Survival median (L1210 [48]) was 18 days and the weight change % (L1210 [49]) was -4%. It also gave a T/C (L1210 [50]) of 250%, a Survival median (L1210 [51]) of 11 days and a T/C (L1210 [52]) of 213%.
